Here are results for three compounds from patent US8927717B1, “Thiochromeno[2,3-c]quinolin-12-one derivatives, preparation method and application thereof” (National Defense Medical Center, priority 2014, dated 2015).

Broadly, the melting point is the temperature, or range, at which the solid turns liquid.

One data set deals with SK-OV-3. The class given is cell-based. Particulars: SK-OV-3; 10^−5 molar.
For another data set, the system named is ACHN. The class given is cell-based. As to conditions: ACHN; 10^−5 molar.
A further data set relates to U251. The class given is cell-based. Particulars: U251; 10^−5 molar.
The test system of the next data set is NCI/ADR-RES. The class given is cell-based. Particulars: NCI/ADR-RES; 10^−5 molar.
In another data set the test system is SK-MEL-2. The class given is cell-based. Particulars: SK-Mel-2; 10^−5 molar.
The test system of the next data set is IGROV1. The class given is cell-based. As to conditions: IGROV1; 10^−5 molar.
The next data set has as its system HCT-116. The class given is cell-based. As to conditions: HCT-116; 10^−5 molar.
A further data set has as its system SK-MEL-5. The class given is cell-based. As to conditions: SK-MEL-5; 10^−5 molar.
For the next data set, the system named is MDA-MB-231/ATCC. The class given is cell-based. Particulars: MDA-MB-231/ATCC; 10^−5 molar.
The test system of the next data set is HOP-62. The class given is cell-based. Particulars: HOP-62; 10^−5 molar.
Another data set relates to OVCAR-4. The class given is cell-based. Particulars: OVCAR-4; 10^−5 molar.
A further data set relates to HOP-92. The class given is cell-based. As to conditions: HOP-92; 10^−5 molar.
Another data set deals with CAKI-1. The class given is cell-based. As to conditions: CAKI-1; 10^−5 molar.
Another data set relates to SF-268. The class given is cell-based. Particulars: SF-268; 10^−5 molar.
Another data set has as its system NCI-H226. The class given is cell-based. As to conditions: NCI-H226; 10^−5 molar.
In the next data set the test system is KM12. The data set is described as follows: cells. The class given is cell-based. As to conditions: KM12; 10^−5 molar.
The test system of the next data set is SF-539. The class given is cell-based. As to conditions: SF-539; 10^−5 molar.
A further data set relates to UACC-257. The class given is cell-based. Particulars: UACC-257; 10^−5 molar.
In a further data set the test system is HCC-2998. The class given is cell-based. Particulars: HCC-2998; 10^−5 molar.

In the case of `O=c1c2cc(Cl)ccc2sc2c(NCc3ccc4c(c3)OCO4)nc3ccccc3c12` [Compound N27, 6-((Benzo[d][1,3]dioxol-5-ylmethyl)amino)-10-chloro-12H-thiochromeno[2,3-c]quinolin-12-one], the melting point lay in the range of 205 to 206 °C. In the data set on SK-OV-3, this compound yielded a Growth percent of 82.87%. In the data set with ACHN, this compound displayed a Growth percent of 58.48%. For the same compound, in the data set on U251, the Growth percent is on record as 81.03%. The Growth percent with NCI/ADR-RES is listed as 91.11%. In addition, in the data set on SK-MEL-2, the Growth percent came out at 95.57%. The Growth percent in the data set with IGROV1 is reported as 67.81%. Besides, the Growth percent with HCT-116 turned out to be 69.98%. The compound further showed a Growth percent with SK-MEL-5 of 79.86%. In the data set on MDA-MB-231/ATCC, the Growth percent worked out at 54.65%. In the data set with HOP-62, the Growth percent is given as 78.01%. For the same compound, the Growth percent in the data set on OVCAR-4 worked out at 53.73%. Moreover, in the data set with HOP-92, the Growth percent was 45.39%. Further, the Growth percent in the data set on CAKI-1 is 75.09%. Also, the Growth percent in the data set with SF-268 amounted to 93.24%. This compound yielded a Growth percent in the data set on NCI-H226 of 53.50%. The compound further yielded a Growth percent in the data set on KM12 of 87.96%. In the data set with SF-539, this compound registered a Growth percent of 77.12%.

Compound `O=c1c2cc(Cl)ccc2sc2c(NCCc3ccccc3)nc3ccccc3c12` [Compound N30, 10-Chloro-6-(phenethylamino)-12H-thiochromeno[2,3-c]quinolin-12-one] returned a melting point of 151 to 152 °C. The same compound gave a Growth percent with SK-OV-3 of 102.16%. Besides, the Growth percent in the data set with ACHN amounted to 90.85%. In the data set on U251, this compound showed a Growth percent of 96.78%. In the data set on NCI/ADR-RES, this compound gave a Growth percent of 96.51%. Moreover, in the data set on SK-MEL-2, the Growth percent was found to be 106.33%. This compound also displayed a Growth percent with UACC-257 of 109.29%. Besides, the Growth percent in the data set on HCT-116 is on record as 85.77%. This compound also returned a Growth percent in the data set on SK-MEL-5 of 89.49%. The same compound yielded a Growth percent in the data set on MDA-MB-231/ATCC of 79.55%. The Growth percent in the data set on HOP-62 is on record as 103.19%. For the same compound, the Growth percent in the data set on OVCAR-4 is listed as 79.53%. For the same compound, the Growth percent in the data set on HOP-92 was determined as 73.02%. In the data set with HCC-2998, the Growth percent turned out to be 113.77%. The compound further yielded a Growth percent in the data set with CAKI-1 of 81.04%. Besides, the Growth percent in the data set on SF-268 was 101.32%. Moreover, the Growth percent with NCI-H226 was found to be 77.00%. The same compound yielded a Growth percent in the data set with KM12 of 90.99%. This compound returned a Growth percent in the data set on SF-539 of 97.86%.

The compound `COc1ccc(CCNc2nc3ccccc3c3c(=O)c4cc(Cl)ccc4sc23)cc1` [Compound N31, 10-Chloro-6-((4-methoxyphenethyl)amino)-12H-thiochromeno[2,3-c]quinolin-12-one] yielded a melting point of 214 to 215 °C. This compound returned a Growth percent in the data set on SK-OV-3 of 96.11%. The compound further gave a Growth percent in the data set on ACHN of 91.19%. For the same compound, in the data set on U251, the Growth percent is listed as 98.72%. Moreover, the Growth percent in the data set with NCI/ADR-RES is reported as 103.78%. Further, in the data set with SK-MEL-2, the Growth percent was 113.12%. The compound also came in with a Growth percent in the data set with UACC-257 of 98.66%. Besides, the Growth percent in the data set on IGROV1 was found to be 86.73%. The Growth percent with HCT-116 came out at 98.46%. Moreover, the Growth percent in the data set on SK-MEL-5 is recorded as 85.38%. In the data set with MDA-MB-231/ATCC, this compound displayed a Growth percent of 82.31%. In the data set with HOP-62, this compound came in with a Growth percent of 90.07%. In the data set with OVCAR-4, this compound came in with a Growth percent of 79.00%. The compound also showed a Growth percent with HOP-92 of 67.57%. The Growth percent in the data set with HCC-2998 worked out at 105.27%. In addition, the Growth percent with CAKI-1 amounted to 85.75%. Moreover, in the data set with SF-268, the Growth percent was determined as 100.14%. Further, in the data set on NCI-H226, the Growth percent is reported as 72.39%. Further, in the data set with KM12, the Growth percent is given as 109.46%. Further, the Growth percent in the data set on SF-539 turned out to be 95.67%.
